From patent US6387930B1, “Piperidine derivatives useful as CCR5 antagonists” (Schering Corporation, priority 1999, dated 2002)

Target: T1, human CCR5 chemokine receptor (Homo sapiens, UniProt P51681)
T1 construct: expressed in transfected cells; host or cells: NIH 3T3 cells (mouse fibroblasts), membrane preparation
Assay: CCR5 membrane binding assay (inhibition of RANTES binding)
Conditions: membranes from NIH 3T3 cells expressing human CCR5; 125I-RANTES
Description: CCR5 Membrane Binding Assay:
A high throughput screen utilizing a CCR5 membrane binding assay identifies inhibitors of RANTES binding. This assay utilizes membranes prepared from NIH 3T3 cells expressing the human CCR5 chemokine receptor which have the ability to bind to RANTES, a natural ligand for the receptor. Using a 96-well plate format, membrane preparations are incubated with ^125I-RANTES in the presence or absence of compound for one hour. Compounds are serially diluted over a wide range of 0.001 ug/ml to 1 ug/ml and tested in triplicates. Reaction cocktails are harvested through glass fiber filters, and washed thoroughly. Total counts for replicates are averaged and data reported as the concentration required to inhibit 50 percent of total ^125I-RANTES binding.

T1 sequence (P51681 whole entry): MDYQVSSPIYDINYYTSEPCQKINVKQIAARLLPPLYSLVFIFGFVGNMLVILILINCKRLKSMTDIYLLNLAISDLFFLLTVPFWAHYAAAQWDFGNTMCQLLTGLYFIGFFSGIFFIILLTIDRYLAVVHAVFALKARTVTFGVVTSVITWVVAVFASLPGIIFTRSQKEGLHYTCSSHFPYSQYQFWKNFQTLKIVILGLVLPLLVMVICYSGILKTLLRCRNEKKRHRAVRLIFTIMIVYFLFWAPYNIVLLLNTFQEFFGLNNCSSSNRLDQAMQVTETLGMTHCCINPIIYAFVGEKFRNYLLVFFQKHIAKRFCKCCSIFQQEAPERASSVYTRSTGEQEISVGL

| SMILES | Ki |
| --- | --- |
| CC1(N2CCC(C(Oc3ccccn3)c3ccc(C(F)(F)F)cc3)CC2)CCN(C(=O)c2c(Cl)cncc2Cl)CC1 (stereo not shown) [Example 2JJ] | 0.58 nM |
| CCO/N=C(\c1ccc(Br)cc1)C1CCN(C2(C)CCN(C(=O)c3c(C)ncnc3C)CC2)CC1 [Example 5N] | 1.7 nM |
| Cc1ccnc(C)c1C(=O)N1CCC(C)(N2CCC(C(Oc3ccccn3)c3ccc(Br)cc3)CC2)CC1 (single isomer, unassigned) [Example 4B] | 0.5 nM |
| Cc1ccnc(C)c1C(=O)N1CCC(C)(N2CCC(C(Oc3cnccn3)c3ccc(S(C)(=O)=O)cc3)CC2)CC1 (stereo not shown) [Example 2S] | 17.9 nM |
| Cc1cccc(C)c1C(=O)N1CCC(C)(N2CCC(C(Oc3nccs3)c3ccc(Br)cc3)CC2)CC1 (stereo not shown) [Example 1J] | 1 nM |

Continued by falling Ki, values first:

| Ki | SMILES |
| --- | --- |
| 588 nM | CC1(N2CCC(Cc3ccc(Br)cc3)CC2)CCN(C(=O)c2cccc3ccccc23)CC1 [Example 9D] |
| 7.9 nM | CO/N=C(\c1ccc(Br)cc1)C1CCN(C2(C)CCN(C(=O)c3c(C)ncnc3C)CC2)CC1 [Example 5L] |
| 1.8 nM | Cc1ccnc(C)c1C(=O)N1CCC(C)(N2CCC(C(Oc3ccccn3)c3ccc(C(F)(F)F)cc3)CC2)CC1 (stereo not shown) [Example 2G] |
| 0.8 nM | CCO/N=C(\c1ccc(C(F)(F)F)cc1)C1CCN(C2(C)CCN(C(=O)c3c(Cl)cncc3Cl)CC2)CC1 [Example 6V] |
| 0.1 nM | CCO/N=C(\c1ccc(Br)cc1)C1CCN(C2(C)CCN(C(=O)c3c(C)cc(-c4ccncc4)cc3C)CC2)CC1 [Example 5AB] |
